Data taken from US20090252717A1, “Compositions and Methods for Treating Polyglutamine-Expansion Neurodegenerative Diseases” (priority 2006, published 2009).
Entries after “also recorded” stand apart in the source; their conditions may differ.

Tests used:
[1] = system: p38α, p38β, JNK2, and JNK3; conditions: cited from earlier work
[2] = system: polyQ-AR-induced inhibition of fast axonal transport; assay: Vesicle motility assay in isolated squid axoplasm, co-perfusion with polyQ-AR; format: cell-based, squid Loligo pealeii
Description: (§1) Recombinant Polypeptides. Wild-type androgen receptor and polyQ-AR polypeptides were produced by in vitro transcription/translation (TNT T7-Coupled Reticulocyte Lysate System; Promega, Madison, Wis.) according to manufacturer's protocols. Typically, 1.8 μg of plasmid was transcribed in 50 μl reaction mix. To assess protein levels, parallel reactions were performed incorporating ^35S-labeled methionine (Amersham) or quantitative immunoblots were performed. Protein concentrations were typically 0.2-0.5 nM. In vitro translated androgen receptor has been characterized and shown to be functional (Kuiper, et al. (1993) Biochem. J. 296(Pt 1):161-7). In vitro translation products were briefly centrifuged to eliminate translation machinery, and supernatants frozen in liquid N2 until used.
(§2) Squid Axoplasm. Isolated squid axoplasm represents a unique experimental system to evaluate axonal-specific effects and pathogenic mechanisms. This model was instrumental in the original discovery of kinesin-1 (Brady (1985) Nature 317:73-75, novel pathways for fast axonal transport (Morfini, et al. (2002) supra; Morfini, et al. (2004) supra), and axonal-specific phosphorylation events (Grant & Pant (2000) J. Neurocytol. 29:843-72). Bidirectional membrane-bound organelle movements are observed with properties unchanged from intact axons for hours after removal of plasma membrane (Brady, et al. (1982) Science 218:1129-1131). Video-enhanced microscopic techniques allow quantitative analysis of membrane-bound organelle movement in fast axonal transport. Typical kinesin-dependent transport rates are 1.5-2.0 μm/s, whereas retrograde, cytoplasmic dynein-dependent rates are 1-1.3 μm/s in perfused axoplasms. These rates are maintained with little (<10%) or no reduction for >1 hour after perfusion with control buffer (Brady, et al. (1982) supra). […]
(§3) Motility Studies in Isolated Axoplasm. […] Preparations were analyzed on a ZEISS AXIOMAT with a 100×, 1.3 n.a. objective, and DIC optics. […] Organelle velocities were measured with a Photonics Microscopy C2117 video manipulator (Hamamatsu).

[3] = system: polyQ-Htt-induced inhibition of fast axonal transport; assay: Vesicle motility assay in isolated squid axoplasm, co-perfusion with polyQ-Htt; format: cell-based, squid Loligo pealeii; conditions: co-perfused with polyQ-Htt, concentration not given
Source text: (§4) Genes encoding human wild-type Huntingtin (Htt) (i.e., Q20, residues 1-548; Szebenyi, et al. (2003) supra) and polyQ-expanded Htt (i.e., Q46, residues 1-949; Qin, et al. (2004) J. Neurosci. 24(1):269-81) were cloned into the pcDNA.3 vector and produced by in vitro transcription/translation as described for the androgen receptor. Alternatively, shorter constructs (Htt exon1) were expressed in E. coli as GST-tagged proteins.
as §2, with “transport.” for “transport. Typical kinesin-dependent transport rates are 1.5-2.0 μm/s, whereas retrograde, cytoplasmic dynein-dependent rates are 1-1.3 μm/s in perfused axoplasms. These rates are maintained with little (<10%) or no reduction for >1 hour after perfusion with control buffer (Brady, et al. (1982) supra).”
Motility Studies in Isolated Axoplasm. […] Preparations were analyzed on a ZEISS AXIOMAT with a 100×, 1.3 n.a. objective, and DIC optics. […]

[4] = system: 902-6 SH-SY5Y cells (polyQ-AR); assay: Neurite outgrowth of differentiated SH-SY5Y cells expressing polyQ-AR; format: cell-based, human
Description: (§5) SH-SY5Y Cell Culture and Pharmacological Inhibition. Androgen receptor constructs containing wild-type androgen receptor (Q20) and pathogenic androgen receptor (Q56) tracts were prepared and stably transfected into SH-SY5Y human neuroblastoma cells (Avila, et al. (2003) Exp. Biol. Med. (Maywood) 228:982-90). Wild-type and 902-6 cells (expressing both full-length polyQ-AR and a truncated N-terminal androgen receptor fragment (≈25 kD) that accumulated in cytoplasm) were grown and differentiated (Szebenyi, et al. (2003) supra). Cells were plated at densities of 10,000 cells/cm^2 on 10-cm tissue culture dishes for biochemical studies, and at 3000-5000 cells/cm^2 on 4-well tissue-tech chamber slides (Becton-Dickinson, Mountain View, Calif.) for immunocytochemistry and morphometric studies. For inhibitor studies, cells were differentiated with 10 μM retinoic acid in serum for 5-6 days, and then switched to serum-free medium supplemented with 25 ng/ml BDNF (Alomone Laboratories, Jerusalem, Israel) with or without SB203580 inhibitor. Cell morphologies were evaluated after 3 days in BDNF±SB203580 (Szebenyi, et al. (2003) supra).

[5] = system: wild-type androgen receptor SH-SY5Y cells; assay: Neurite outgrowth of differentiated SH-SY5Y cells expressing wild-type androgen receptor; format: cell-based, human; conditions: 10 μM
Description: as §5

[6] = system: fast axonal transport; assay: Vesicle motility assay in isolated squid axoplasm, perfusion of recombinant protein alone; format: cell-based, squid Loligo pealeii; conditions: protein alone
Description: as §1, §4
as §2, with “supra). The lack of permeability barriers allows perfusion of the axoplasm with a variety of effector molecules at known concentrations. Effectors of interest include nucleotides, pharmacological inhibitors, recombinant polypeptides, and antibodies.” for “supra).”
as §3

[7] = system: kinesin-1; assay: Kinesin-1 ATPase assay; format: biochemical, rat; conditions: in vitro, up to equimolar levels of androgen receptor and kinesin-1
Description: Kinesin-1 ATPase Assays. Kinesin-1 basal and microtubule-activated ATPase activity was assayed according to known methods (Morfini, et al. (2002) supra; Tsai, et al. (2000) Mol. Biol. Cell 11:2161-2173). Briefly, purified rat brain kinesin and in vitro-translated androgen receptor constructs were incubated with or without TAXOL-stabilized MAP-free microtubules (1 mg/ml). Assays were started by addition of 1 mCi γ-^32P ATP (ICN Biochemicals, Costa Mesa, Calif.) and incubated for 25 minutes at 37° C. Reactions were stopped with 10% SDS and aliquots spotted on PEI-cellulose plates. Chromatograms were developed in 0.5 M LiCl/1 M formic acid and spots for ^32P and γ-^32P ATP counted to obtain percent of total ^32P recovered as free phosphate.

[8] = system: fast axonal transport; conditions: cited from earlier work
[9] = system: neurofilament phosphorylation; assay: Neurofilament phosphorylation in squid axoplasm (immunoblot, SMI32); format: cell-based; conditions: axoplasm incubated with protein
Description: Phosphorylation Studies in Squid Axoplasm. Three to four axoplasms were triturated in KB buffer (KB: 10 mM HEPES pH 7.4, 10 mM MgCl2, 1 mM DTT) and aliquoted. Individual reactions with corresponding in vitro-translated androgen receptor constructs were started by adding radiolabeled ATP to 100 μM. Reactions were done in 50 μl, incubated for 20 minutes at room temperature and stopped with 50 μl of 2× sample buffer. Lysates were separated by SDS-PAGE and analyzed by autoradiography. For certain indicated assays, 2 axoplasms per tube were incubated in X/2 buffer for 50 minutes with corresponding in vitro-translated androgen receptor construct, then 50 μl of 2× sample buffer was added and samples analyzed by immunoblot.

[10] = co-perfused with polyQ-AR, concentration not given

Molecule | effect on polyQ-Htt-induced inhibition of fast axonal transport [3] | mean fast axonal transport rate ([6]; 20-30 minutes) [μm/sec] | mean fast axonal transport rate ([6]; 40-50 minutes) [μm/sec] | effect on basal and microtubule-activated ATPase activity of kinesin-1 [7] | effect on polyQ-AR-induced inhibition of fast axonal transport [2, 10] | further results
C[S+]([O-])c1ccc(-c2nc(-c3ccncc3)c(-c3ccc(F)cc3)[nH]2)cc1 (stereo not shown) [SB203580] | prevented the effects of polyQ-Htt on fast axonal transport |  |  |  |  | kinases inhibited [1]: inhibits p38α, p38β, JNK2, and JNK3; effect on polyQ-AR-induced inhibition of fast axonal transport ([2]; 10 μM co-perfused with polyQ-AR): completely blocked the inhibition of fast axonal transport in both anterograde and retrograde directions; proportion of cells with long neurites (>80 μm in length) ([4]; 10 μM or 20 μM): dramatic and dose-dependent increase in the proportion of cells that extended long neurites; also recorded: significant increase in the number of polyQ-AR cells extending long neurites; neurite length / outgrowth ([4]; 10 μM, 3 days BDNF): increasing neurite outgrowth; also recorded: increased in length; neurite length / morphology distribution ([4]; 20 μM, 3 days BDNF): nearly indistinguishable between wild-type and 902-6 cells; also recorded: indistinguishable from untreated wild-type androgen receptor cells; effect on inhibition of neurite outgrowth by polyQ-AR ([4]; added to culture media, 3 days BDNF): overcame inhibition of neurite outgrowth by polyQ-AR; also recorded: reverses inhibition of neurite formation by polyQ-AR; neurite outgrowth [5]: increasing neurite outgrowth
wild-type androgen receptor: wild-type androgen receptor (Q20) produced by in vitro transcription/translation |  | 1.71±0.03 | 1.77±0.04 | not affected |  | 
CCSCc1ccc2c(c1)c1c3c(c4c5cc(CSCC)ccc5n5c4c1n2[C@H]1C[C@](O)(C(=O)OC)[C@]5(C)O1)CNC3=O [CEP-1347] | prevented the effects of polyQ-Htt and polyQ-AR on fast axonal transport |  |  |  | prevented the effects of polyQ-Htt and polyQ-AR on fast axonal transport | 
C=C1[C@@H](O)[C@@H]2O[C@]3(CC[C@H](/C=C/[C@@H](C)[C@@H]4CC(C)=C[C@@]5(O[C@H](C[C@@](C)(O)C(=O)O)CC[C@H]5O)O4)O3)CC[C@H]2O[C@@H]1[C@@H](O)C[C@H](C)[C@H]1O[C@@]2(CCCCO2)CC[C@H]1C [okadaic acid] |  |  |  |  | failed to prevent polyQ-AR-induced fast axonal transport inhibition | 
polyQ-AR: polyglutamine-expanded androgen receptor (Q56) produced by in vitro transcription/translation |  | 1.25±0.03 | 1.08±0.02 | failed to affect either basal or microtubule-activated ATPase activity of kinesin-1 |  | level that inhibits fast axonal transport [8]: < 1 nM; SMI32 immunoreactivity [9]: reduced
